The results in this text go back to ChEMBL document CHEMBL1158777, “Petrosamine B, an inhibitor of the Helicobacter pylori enzyme aspartyl semialdehyde dehydrogenase from the Australian sponge Oceanapia sp” (J Nat Prod, 2005).

In this assay the target is T1, Aspartate-semialdehyde dehydrogenase (Helicobacter pylori (strain ATCC 700392 / 26695) (Campylobacterpylori), UniProt O25801).
T1 sequence (O25801 whole entry): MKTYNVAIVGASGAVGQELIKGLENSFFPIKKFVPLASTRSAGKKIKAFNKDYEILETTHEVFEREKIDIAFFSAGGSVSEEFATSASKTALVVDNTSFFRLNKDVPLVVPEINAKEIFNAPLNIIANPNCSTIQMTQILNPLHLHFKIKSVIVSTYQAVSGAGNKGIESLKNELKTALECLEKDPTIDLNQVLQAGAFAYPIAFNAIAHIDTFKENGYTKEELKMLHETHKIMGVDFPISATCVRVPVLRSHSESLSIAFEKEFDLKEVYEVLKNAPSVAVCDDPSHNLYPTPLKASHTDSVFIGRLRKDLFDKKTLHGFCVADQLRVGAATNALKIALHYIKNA
Kind of assay: Inhibition of Helicobacter pylori His-tagged ASD assessed as inhibition of phosphorylation of aspartate semialdehyde.

pIC50: −log10 of the molar value.

Broadly, the pIC50 is −log10 of the IC50, conventionally taken in molar units. For the compound `N[C@@H](CSS(=O)(=O)O)C(=O)O`, the pIC50 is 6.74.

`C[n+]1ccc2c(c1)c(O)c1c3c(c4cc(Br)ccc4nc32)C(=O)C[N+]1(C)C` [PETROSAMINE B]: the pIC50 was 3.51.
